# According to US20160281089A1, “PREVENTION OF VIRAL INFECTIVITY” (priority 2005, published 2016):
# Tests used:
# [1] = molecular target: T1, RNase H activity of HIV RT/RNaseH (Human immunodeficiency virus type 1 group M subtype B, UniProt P04585); assay: Permeabilized HIV virions with ODN A and Illimaquinone, viral RNA degradation by real-time PCR; conditions: 150 μM Illimaquinone, 50 nM ODN A, 0.1% NP-40 permeabilized virions, 30 min 37° C., without added RT/RNaseH
# [2] = molecular target: T1, RNase H activity of HIV RT/RNaseH; set-up: the HIV RT/RNase H is a heterodimer of p66 and p51 with and without RNase H; endogenous in cells; host or cells: permeabilized HIV virions (virion-associated enzyme); panel B has added recombinant RT/RNaseH at 0.05 units/µl; conditions: previously described; cited from earlier work
# HIV virions [3] = assay: ODN-mediated cleavage of viral RNA in intact HIV virions (real-time PCR, RT-PCR, agarose gel); format: biochemical; conditions: 0.5 μM ODN, intact HIV virions, RPMI medium, 6 hours
# HIV virions [4] = assay: Infectivity of ODN-pre-incubated HIV virions in C81-66/45 cells; format: cell-based; conditions: for binding/uptake of pre-treated virions by host cells: pre-incubation 4 hours, HIV RNA in infected cells 1 hour post-infection
# Procedure: As a next step we investigated the antiviral effect of ODNs by testing the infectivity of treated virions in cell culture studies. We used ODN A, ODN T, as PPT and ODN CO. 2×10^5 C81-66/45 cells were infected with virions pre-incubated with different ODNs at 0.01 MOI for 1, 2 or 4 hours prior to infection. RNA was extracted from infected cells and HIV replication was analysed by real-time PCR 3 days post-infection.
# To test the specificity of suppression of viral replication, the effect of ODN A on the infectivity of virions was compared with control ODNs. Virions were pre-treated with the ODNs and HIV replication in infected cells was analysed by real-time PCR, 5 days (FIG. 6A) or 20 days post-infection (FIG. 6B) and by measuring p24 production in the supernatant of the infected cells (FIG. 6C).
# (A) HIV virions were incubated with 0.5 μM of ODNs for 1, 2 or 4 hours. C81-66/45 cells were infected with pre-incubated virions, at 0.01 MOI. RNA was extracted from infected cells and HIV replication was analysed by real-time PCR, 3 days post-infection (p.i.).
# (B) The same experiment as in (A) was performed with ODN T, ODN CO, asPPT and ODN A pre-treated virions.
# (D) C81-66145 cells were infected with virions pre-incubated with 0.5 or 5 μM of ODNs for 4 h, at an MOI of 1. RNA was extracted from infected cells and HIV replication was analysed by real-time PCR, 3 days post-infection.
# (E) C81-66/45 cells were infected with virions pre-incubated with ODN A and ODN Sc for 4 h, at an MOI of 0.01. RNA was extracted from infected cells and HIV replication was analysed by real-time PCR, 1 h and 24 h post-infection. (F) The same experiment as in (E) was performed except for using ODN T, ODN B and ODN A, 1 hour post-infection.
# C81-66/45 cells were infected with virions pre-incubated with ODN A, ODN T, ODN CO or as PPT for 4 h, at MOI of 0.01. RNA was extracted from infected cells and HIV replication was analysed by real-time PCR, 5 days p.i. (A), and 20 days p.i. (B); by measuring p24 production in the medium of the infected cells (C) or by RT-PCR, 11 days p.i. (D).
# SFFV = assay: NIH 3T3 cells infected with ODN-pretreated SFFV; format: cell-based; conditions: three days post-infection, real-time RT-PCR
# Description: As next step we investigated the antiviral effect of ODNs by testing pre-treated virions for residual infectivity as has been described before for HIV particles. SFFV particles were pretreated with ODN M or its variants and used to infect NIH 3T3 cells. After three days RNA was extracted from infected cells and from the supernatants and SFFV was quantified by real-time RT-PCR and analysis of amplification products (FIG. 9b).
# b. NIH 3T3 cells were infected with SFFV pretreated with various ODNs. After three days the cells and supernatants were harvested and analyzed for SFFV RNA levels by quantitative real time RT-PCR (top) and RT-PCR (bottom) using GAPDH for comparison.
compound,measurement,setting,value
C=C1CCC[C@H]2[C@](C)(CC3=C(O)C(=O)C=C(OC)C3=O)[C@@H](C)CC[C@]12C [Illimaquinone],ODN A-mediated viral RNA cleavage in presence of Illimaquinone,[1],failed to induce cleavage
same,inhibition of RNase H activity of HIV RT/RNaseH,[2],specifically inhibit the RNase H activity
"AAAAGAAAAGGGGGGACTGGTTGGGTTTTCCCTTCCAGTCCCCCCTTTTCTTTT (chemistry not given here) [ODN T, passenger strand fully complementary to the antisense strand]","amount of undigested viral RNA (real-time PCR, primers covering PPT region)",HIV virions [3],less efficient cleavage of the viral RNA
same,binding/uptake of pre-treated virions by host cells,HIV virions [4],uptake similar to ODN A
same,HIV replication in infected cells (real-time PCR),"HIV virions [4]; virions pre-incubated 4 hours with 0.5 μM ODN, 0.01 MOI, 3 days post-infection",low but detectable levels
"TCTTTTTGCGCGCTTTGTTTGTTTTTTCTTTCATTCCCCCCTTTTTCT (chemistry not given here) [ODN CG, ODN M variant with a triple nucleotide change in the second strand (SFFV tests)]","amount of undigested viral RNA (real-time PCR, primers covering PPT region)",HIV virions [3],antiviral activity similar to ODN A
same,SFFV RNA in infected cells and supernatant,SFFV,clearly less efficient
"TCTTTTTGGGGGGAATGTTTGTTTTTTCTTTCATTCCCCCCTTTTTCT (DNA, backbone and methylation of C not given here) [ODN S, ODN M variant, two nucleotide changes in the second strand]",SFFV RNA in infected cells and supernatant,SFFV,clearly less efficient
"TTTCTTTTGGGGGGTTTGGTTGGGTTTTCCCTTCCAGTCCCCCCTTTTCTTT (chemistry not given here) [ODN B, one nucleotide removed from both 5′ and 3′ ends of ODN A]","amount of undigested viral RNA (real-time PCR, primers covering PPT region)",HIV virions [3],less efficient cleavage of the viral RNA
same,binding/uptake of pre-treated virions by host cells,HIV virions [4],uptake similar to ODN A
"TTTGGGGGGTTCTTCCTCCTTTCCTTTTTCGCCCGTCCGTTGCGTTGATTTTTT (chemistry not given here) [ODN Sc, reference compound]","amount of undigested viral RNA (real-time PCR, primers covering PPT region)",HIV virions [3],less efficient cleavage of the viral RNA
"TTTTCTTTTGCGCGCTTTGGTTGGGTTTTCCCTTCCAGTCCCCCCTTTTCTTTT (chemistry not given here) [ODN NT, triple substitution in the passenger strand at site complementary to CCCCCC]","amount of undigested viral RNA (real-time PCR, primers covering PPT region)",HIV virions [3],less efficient cleavage of the viral RNA
"TTTTCTTTTGGGGGGACTGGTTGGGTTTTCCCTTCCAGTCCCCCCTTTTCTTTT (chemistry not given here) [ODN H, triple substitution in the passenger strand]","amount of undigested viral RNA (real-time PCR, primers covering PPT region)",HIV virions [3],less efficient cleavage of the viral RNA
